assay: Human HepG2 cell viability assay in 384 well format; type: toxicity, cell-based; set-up: dose 125 nL, time 70.5 hour; concentration not given beside the values; settings: HepG2 cells, read-out: Inhibition

Compared with `CCn1nc(C)cc1C(=O)OCCNc1ncnc2ccccc12`, `CC(C(=O)NCCOc1ccccc1)n1cncn1` (stereo not drawn) is lower in cytotoxicity at 70.5 h: 27.6% for the first, -12.5% for the second.

First: Cc1csc(-c2ccc(NC(=O)N3CCOCC3)cc2)n1
Second: O=C1NCC2(CCCN(C(=O)Nc3ccc4scnc4c3)CC2)O1 (stereo not drawn)
The cytotoxicity at 70.5 h of the first is higher: -0.264% for the first, -16.7% for the second.

Compared with `O=S(=O)(C1CC1)N1CCCn2cnc(COc3cccnc3)c2C1`, `CC1CCCN(CCCNC(=O)c2cn(C)nc2-c2cccnc2)C1` (stereo not drawn) is higher in cytotoxicity at 70.5 h: -2.62% for the first, -2.34% for the second.

First: CC(=O)N(C)CC(=O)Nc1cnc(-n2ccnc2)nc1
Second: COc1cc(-n2cc(CCO)cn2)ccc1NC(C)=O
The cytotoxicity at 70.5 h of the first is higher: 0.242% for the first, -9.17% for the second.

Compared with `Cc1cccc2cc(CN3CCC(N4CCCC4)CC3)c(=O)[nH]c12`, `O=c1[nH]c(N2CCN(C3CC3)CC2)nc2c1cnn2-c1ccccc1` is lower in cytotoxicity at 70.5 h: -6.75% for the first, -6.97% for the second.

Compared with `O=C(NC1CCCC1)c1cc(Cn2cnc3ccccc32)on1`, `Cc1c(C(=O)NC2CCCOC2)nnn1-c1ccc(Cl)cc1F` (stereo not drawn) is higher in cytotoxicity at 70.5 h: -1.14% for the first, -0.806% for the second.

First: COc1ccccc1OCCNc1snc(Cl)c1C#N
Second: COCC1CN(C(=O)COc2ccccc2)Cc2ncn(C)c21 (stereo not drawn)
The cytotoxicity at 70.5 h of the first is lower: -15.5% for the first, -0.249% for the second.

Compared with `Cc1noc([C@H]2C[C@H]3OCC[C@H]3N(Cc3ccncc3)C2)n1`, `Cc1noc([C@@H]2C[C@H]3CN(Cc4ccc5c(c4)OCO5)C[C@H]3O2)n1` is lower in cytotoxicity at 70.5 h: -7.52% for the first, -16.8% for the second.

Going from `CC(C)Nc1nc(O)cc(C2CC(=O)N(C3CCCCC3)C2)n1` (stereo not drawn) to `O=C(c1ccc2c(c1)[nH]c(=O)n2C1CCCC1)N1CC(O)C1`, the cytotoxicity at 70.5 h rises from -3.62% to -3.54%.

Going from `Nc1ccc(-c2ccc(F)cc2Cl)cn1` to `COc1ccc(F)c(-c2ncccc2C(=O)N2C[C@H]3CC[C@@H]2C3)c1`, the cytotoxicity at 70.5 h falls from -8.38% to -9.45%.

Going from `CS(=O)(=O)N1CCN(C(=O)c2cnn3c2OCCC3)CC1` to `COc1ccccc1C(=O)N1CCOC2(CCCN(C(C)=O)C2)C1` (stereo not drawn), the cytotoxicity at 70.5 h falls from -2.74% to -12.3%.

Compared with `CCS(=O)(=O)c1ncc(CN2CCOCC2)n1CCCc1ccccc1`, `c1ccc(OCCCN2CCOC(CNc3cccnn3)C2)cc1` (stereo not drawn) is lower in cytotoxicity at 70.5 h: 19.9% for the first, -6.97% for the second.

Compared with `Cc1cccnc1CNC(=O)N(CCCO)C1CCc2ccccc21` (stereo not drawn), `CN(C)CCCn1ccnc1C1CCN(c2cccc(C(=O)O)n2)CC1` is higher in cytotoxicity at 70.5 h: -12.3% for the first, -5.15% for the second.

Compared with `Cc1ccc(F)c(OC2(C(=O)O)CCN(C(=O)N3CCCC3)CC2)c1`, `O=C(c1ccncc1)N1CCC(O)(Cn2ccc3ccncc32)CC1` is lower in cytotoxicity at 70.5 h: -9.12% for the first, -13.3% for the second.

Compared with `CC(C)CN1C(=O)C2(CCN(Cc3ccsc3)C2)c2ccccc21` (stereo not drawn), `CC(C)c1nc(CNCC2CCCN2c2cccnn2)cs1` (stereo not drawn) is higher in cytotoxicity at 70.5 h: -13% for the first, -8.04% for the second.

Compared with `Cc1ccc(C(=O)NS(C)(=O)=O)cc1S(C)(=O)=O`, `CC1CCN(CCCNS(=O)(=O)c2cccc(F)c2)CC1` is lower in cytotoxicity at 70.5 h: 3.46% for the first, -13.7% for the second.

Compared with `Cc1nnc(CN(C)CC2CCCN2c2cccnn2)o1` (stereo not drawn), `CN(Cc1ccco1)C(=O)CN1CCCCC1Cn1cncn1` (stereo not drawn) is lower in cytotoxicity at 70.5 h: -3.53% for the first, -8.72% for the second.

Compared with `CCS(=O)(=O)N1CCCCC1c1nc(C)no1` (stereo not drawn), `O=C1NCCCCC1NS(=O)(=O)N1CCCCCC1` (stereo not drawn) is lower in cytotoxicity at 70.5 h: -5.51% for the first, -13.8% for the second.

Compared with `O=C(c1csc(-c2cnccn2)n1)N1CCCC1Cn1cccn1` (stereo not drawn), `CNc1cccc(C2CCCN(C(=O)c3cncs3)C2)n1` (stereo not drawn) is lower in cytotoxicity at 70.5 h: 2.23% for the first, -4.52% for the second.

Going from `CN(Cc1cc(Cl)ccc1Cl)Cc1ncnn1C` to `Cn1cc(N2CCCC(Nc3ccc4c(c3)CCCO4)C2=O)cn1` (stereo not drawn), the cytotoxicity at 70.5 h rises from -1.99% to -0.945%.

Going from `COc1c(C2SCC(=O)Nc3[nH]ncc32)cc2c(c1OC)OCO2` (stereo not drawn) to `CC1CCCCN1C(=O)c1n[nH]c(=O)c2ccccc12` (stereo not drawn), the cytotoxicity at 70.5 h rises from -13.6% to 32.4%.

Going from `COC[C@@H]1CCC[C@@]12CN(C(=O)C1CCOCC1)CCO2` to `O=C(NCc1cc(=O)n2c(n1)CN(CC1CCOC1)CCC2)C1CC1` (stereo not drawn), the cytotoxicity at 70.5 h rises from -7.08% to -4.46%.

Compared with `N#CCCn1nc(C(F)(F)F)c2c1CCC2`, `O=C(c1ccc(F)c(F)c1)N1CCC(Cn2cc(CO)nn2)CC1` is lower in cytotoxicity at 70.5 h: -2.44% for the first, -3.06% for the second.

First: c1cncc(CO[C@H]2CN(Cc3ccco3)[C@@H]3COC[C@H]23)c1
Second: O=c1c(Cc2ccccc2)c(O)ccn1Cc1ccco1
The cytotoxicity at 70.5 h of the first is lower: -3.78% for the first, 0.508% for the second.

First: CC(C)(C)OC(=O)N1CSC[C@@H]1C(=O)NCc1cccc(C#N)c1
Second: COc1ccccc1CN1CCC2(CCC(C(=O)N(C)C)O2)CC1 (stereo not drawn)
The cytotoxicity at 70.5 h of the first is higher: -0.236% for the first, -8.03% for the second.

Going from `O=C(Cc1ccsc1)N1CCCC2(COCCN(CC3CC3)C2)C1` (stereo not drawn) to `O=C(c1ccncc1)N1CCOC2(COCCN(c3cncnc3)C2)C1` (stereo not drawn), the cytotoxicity at 70.5 h falls from 1.23% to -11.1%.

Compared with `CCCN(CCC)C1(Cc2cc(-c3cccc(O)c3)on2)COC1`, `CN(CCc1ccccn1)C(=O)c1cn(CCN2CCNCC2)nn1` is lower in cytotoxicity at 70.5 h: -2.95% for the first, -10.7% for the second.

Compared with `O=c1[nH]nc2nc(N3CCSCC3)ccn12`, `CS(=O)(=O)NCC(=O)N[C@H]1CN(c2cnccn2)C[C@@H]1C1CC1` is higher in cytotoxicity at 70.5 h: 0.517% for the first, 9.56% for the second.

Going from `O=C(O)CNc1cc(-c2cc(C(=O)NC3CC3)ccn2)c2cc[nH]c2n1` to `CCc1nc(CCNC(=O)Nc2cc(C(N)=O)sc2C)cs1`, the cytotoxicity at 70.5 h rises from -0.0958% to 17%.
